The source made the active and inactive calls. The rule behind the calls is not given here.
Assays:
A549 [1] = experiment: Antiproliferative activity against human A549 cells assessed as inhibition of cell growth incubated for 24 to 72 hrs by CCK8 assay; assay type: functional, cell-based
HepG2 = experiment: Antiproliferative activity against human HepG2 cells assessed as inhibition of cell growth incubated for 24 to 72 hrs by CCK8 assay; assay type: functional, cell-based
NCI-H460 = experiment: Antiproliferative activity against human NCI-H460 cells assessed as inhibition of cell growth incubated for 24 to 72 hrs by CCK8 assay; assay type: functional, cell-based
[2] = molecular target: Non-selective voltage-gated ion channel VDAC1 (Homo sapiens) (UniProt P21796); experiment: Activation of VDAC1 channel in human A549 cells assessed as increase in mitochondrial Ca2+ endocytosis by staining based analysis; assay type: cell-based; details: filed as opener
Chain of Non-selective voltage-gated ion channel VDAC1 (Homo sapiens) (P21796 whole entry): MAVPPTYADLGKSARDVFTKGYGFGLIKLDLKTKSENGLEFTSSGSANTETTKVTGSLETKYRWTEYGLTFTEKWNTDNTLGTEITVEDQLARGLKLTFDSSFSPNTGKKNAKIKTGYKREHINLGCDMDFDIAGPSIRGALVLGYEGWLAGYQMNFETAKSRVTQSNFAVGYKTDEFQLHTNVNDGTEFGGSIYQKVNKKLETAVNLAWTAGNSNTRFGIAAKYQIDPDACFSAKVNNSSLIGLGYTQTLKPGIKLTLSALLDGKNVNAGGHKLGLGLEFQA

A549 [3] = experiment: Induction of TMBIM6-VDAC1 protein-protein interaction in human A549 cells at 20 uM by immunoprecipitation analysis; assay type: cell-based; details: filed as activator
[4] = molecular target: Bax inhibitor 1 (Homo sapiens) (UniProt P55061); experiment: Thermal stabilization of TMBIM6 in human A549 cells at 46 to 60 degreeC at 100 uM incubated for 2 hrs by CETSA based Western blot analysis; assay type: cell-based
Chain of Bax inhibitor 1 (Homo sapiens) (P55061 whole entry): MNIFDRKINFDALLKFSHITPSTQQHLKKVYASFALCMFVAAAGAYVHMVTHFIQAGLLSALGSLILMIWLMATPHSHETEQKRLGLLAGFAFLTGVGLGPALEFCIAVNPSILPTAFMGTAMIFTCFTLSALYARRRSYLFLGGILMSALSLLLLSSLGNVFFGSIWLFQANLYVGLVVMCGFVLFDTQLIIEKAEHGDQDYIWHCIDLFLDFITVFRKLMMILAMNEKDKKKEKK

A549 [5] = experiment: Induction of autophagy in human A549 cells assessed as effect on LC3II protein expression at 10 to 20 uM incubated for 24 hrs by Western blot analysis; assay type: functional, cell-based; details: dose 10-20 µM
Cell membrane [6] = experiment: Induction of mitochondrial membrane depolarization in human A549 cells assessed as increases in mitochondrial Ca2+ concentration by Rhod-2 AM probe based flow cytometric analysis; assay type: cell membranes
A549 [7] = experiment: Induction of ferroptosis in human A549 cells assessed as increase in […] accumulation; assay type: functional, cell-based
A549 [8] = experiment: Activation of Nrf2-Keap1-HO-1 signaling pathway in human A549 cells assessed as increase in oxidative stress by measuring lipid ROS level at 10 to 20 uM by Western blot analysis; assay type: cell-based; details: filed as activator, dose 10-20 µM
A549 [9] = experiment: Increase in Ca2+ level in human A549 cell cytoplasm at 5 to 20 uM incubated for 8 hrs by confocal photographic analysis; assay type: functional, cell-based; details: dose 5-20 µM
A549 [10] = experiment: Downregulation of TMBIM6 protein expression in human A549 cells at 10 uM by Western blot analysis; assay type: functional, cell-based
[11] = molecular target: Bax inhibitor 1 (Homo sapiens) (UniProt P55061); experiment: Thermal stabilization of TMBIM6 in human A549 cells at 54 to 60 degreeC at 100 uM incubated for 2 hrs by CETSA based Western blot analysis; assay type: cell-based
[12] = molecular target: T1, Cystine/glutamate transporter (Homo sapiens) (UniProt Q9UPY5); experiment: Inhibition of SLC7A11 in human […] cells at 10 to 20 uM by Western blot analysis; assay type: cell-based; details: A549, dose 10-20 µM
T1 sequence (whole entry): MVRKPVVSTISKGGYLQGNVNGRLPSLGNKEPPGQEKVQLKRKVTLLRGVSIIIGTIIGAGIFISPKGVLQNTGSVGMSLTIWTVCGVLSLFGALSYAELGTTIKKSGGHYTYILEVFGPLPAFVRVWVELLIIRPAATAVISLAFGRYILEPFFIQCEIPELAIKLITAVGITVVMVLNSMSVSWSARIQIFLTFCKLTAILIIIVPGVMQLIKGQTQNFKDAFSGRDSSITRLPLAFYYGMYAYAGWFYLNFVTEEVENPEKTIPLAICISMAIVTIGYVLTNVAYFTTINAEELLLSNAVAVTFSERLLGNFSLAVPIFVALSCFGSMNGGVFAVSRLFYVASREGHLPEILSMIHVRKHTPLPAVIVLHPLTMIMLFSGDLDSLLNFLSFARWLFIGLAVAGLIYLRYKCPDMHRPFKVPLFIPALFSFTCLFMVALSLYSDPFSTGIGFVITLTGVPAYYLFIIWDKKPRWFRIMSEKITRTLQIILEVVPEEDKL

A549 [13] = experiment: Induction of autophagy in human A549 cells assessed as effect on PINK1 protein expression at 10 to 20 uM incubated for 24 hrs by Western blot analysis; assay type: functional, cell-based; details: dose 10-20 µM
Cell membrane [14] = experiment: Induction of mitochondrial membrane depolarization in human A549 cells assessed as increases in mitochondrial Ca2+ concentration incubated for 8 hrs by Rhod-2 AM probe based flow cytometric analysis; assay type: cell membranes
A549 [15] = experiment: Induction of ferroptosis in human A549 cells assessed as increase in malondialdehyde content; assay type: functional, cell-based
Cell membrane [16] = experiment: Induction of mitochondrial membrane potential loss in human A549 cells at 10 to 20 uM incubated for 6 hrs by JC-1 staining based flow cytometric analysis; assay type: cell membranes; details: dose 10-20 µM
[17] = Selectivity index, ratio of IC50 for cytotoxicity against human BEAS-2B cells to IC50 for antiproliferative activity against human A549 cells; assay type: toxicity, cell-based; details: read-out: Ratio IC50
A549 [18] = experiment: Induction of ferroptosis in human A549 cells assessed as reduction in GSH content incubated for 2 to 12 hrs; assay type: functional, cell-based; details: time 2-12 hrs

Compound | IC50 (A549 [1]) | IC50 (HepG2) | IC50 (NCI-H460) | other results
CCCCCCCCCCCC(=O)O[C@@]12C[C@@H](C)[C@]34C=C(C)[C@H](OCCC)[C@@]3(O)[C@H](O)C(CO)=C[C@H](C4=O)[C@@H]1C2(C)C | 30 µM | 12.7 µM |  | 
CCCCCCCCCCCC(=O)O[C@@]12C[C@@H](C)[C@]34C=C(C)[C@H](OCC)[C@@]3(O)[C@H](O)C(CO)=C[C@H](C4=O)[C@@H]1C2(C)C | 27.2 µM | 13.6 µM | 45.8 µM | 
CCCCCCCCCCCC(=O)O[C@@]12C[C@@H](C)[C@]34C=C(C)[C@H](OC(=O)c5ccc([N+](=O)[O-])cc5)[C@@]3(O)[C@H](O)C(COC(=O)c3ccc([N+](=O)[O-])cc3)=C[C@H](C4=O)[C@@H]1C2(C)C | 6.1 µM | > 50 µM | 1 µM | Activity [2]: Active; Activity (A549 [3]): Active; Activity [4]: Active; Activity (A549 [5]): Active; Activity (Cell membrane [6]): Active; Activity (A549 [7]): Active; Activity (A549 [8]): Active; Activity (A549 [9]): Active; Activity (A549 [10]): Active; Activity [11]: Active; inhibition [12]: Active; Activity (A549 [13]): Active; Activity (Cell membrane [14]): Active; Activity (A549 [15]): Active; Activity (Cell membrane [16]): Active; selectivity ratio [17]: 8.2; Activity (A549 [18]): Active
CCCCCCCCCCCC(=O)O[C@@]12C[C@@H](C)[C@]34C=C(C)[C@H](OC(=O)NC5CCCC5)[C@@]3(O)[C@H](O)C(CO)=C[C@H](C4=O)[C@@H]1C2(C)C | 11.9 µM | 8.7 µM | 17.9 µM | 
CCCCCCCCCCCC(=O)O[C@@]12C[C@@H](C)[C@]34C=C(C)[C@H](OC(=O)NCCCCCC)[C@@]3(O)[C@H](O)C(CO)=C[C@H](C4=O)[C@@H]1C2(C)C | 31 µM |  | 29 µM | 
CCCCCCCCCCCC(=O)O[C@@]12C[C@@H](C)[C@]34C=C(C)[C@H](OC(=O)NC(C)C)[C@@]3(O)[C@H](O)C(CO)=C[C@H](C4=O)[C@@H]1C2(C)C | 18.1 µM | 13.5 µM |  | 
CCCCCCCCCCCC(=O)O[C@@]12C[C@@H](C)[C@]34C=C(C)[C@H](OC(=O)N5CCCC5)[C@@]3(O)[C@H](O)C(CO)=C[C@H](C4=O)[C@@H]1C2(C)C | 27.9 µM | 21.1 µM |  | 
CCCCCCCCCCCC(=O)O[C@@]12C[C@@H](C)[C@]34C=C(C)[C@H](OC(=O)NC5CC5)[C@@]3(O)[C@H](O)C(CO)=C[C@H](C4=O)[C@@H]1C2(C)C | 13.7 µM | 12.7 µM |  | 
C/C=C(/C)C(=O)O[C@H]1C(C)=C[C@]23C(=O)[C@@H](C=C(CO)[C@@H](O)[C@]12O)[C@H]1[C@@H](C[C@H]3C)C1(C)C [INGENOL MEBUTATE] | > 50 µM | > 50 µM | > 50 µM | 
CCCCCCCCCCCC(=O)O[C@@]12C[C@@H](C)[C@]34C=C(C)[C@H](OC(=O)C5CCCCC5)[C@@]3(O)[C@H](O)C(CO)=C[C@H](C4=O)[C@@H]1C2(C)C | 17.1 µM | 13.4 µM |  | 
CCCCCCCCCCCC(=O)O[C@@]12C[C@@H](C)[C@]34C=C(C)[C@H](OC)[C@@]3(O)[C@H](O)C(CO)=C[C@H](C4=O)[C@@H]1C2(C)C | 16.6 µM | 13.6 µM |  | 
CCCCCCCCCCCC(=O)O[C@@]12C[C@@H](C)[C@]34C=C(C)[C@H](OC(=O)NCCCCCCCC)[C@@]3(O)[C@H](O)C(CO)=C[C@H](C4=O)[C@@H]1C2(C)C | 19.1 µM |  | 14.3 µM | 
CCCCCCCCCCCC(=O)O[C@@]12C[C@@H](C)[C@]34C=C(C)[C@H](OC(=O)NCCCCC)[C@@]3(O)[C@H](O)C(CO)=C[C@H](C4=O)[C@@H]1C2(C)C | 32.8 µM | 1.7 µM | 5.4 µM | 
CCCCCCCCCCCC(=O)O[C@@]12C[C@@H](C)[C@]34C=C(C)[C@H](OC(=O)NCCCC)[C@@]3(O)[C@H](O)C(CO)=C[C@H](C4=O)[C@@H]1C2(C)C | 25.6 µM | 10.3 µM | 9.7 µM | 

More lines, main results first:

IC50 (A549 [1]) | IC50 (HepG2) | IC50 (NCI-H460) | Compound | other results
12.5 µM | > 50 µM | 5.4 µM | CCCCCCCCCCCC(=O)O[C@@]12C[C@@H](C)[C@]34C=C(C)[C@H](OC(=O)c5ccc(F)cc5)[C@@]3(O)[C@H](O)C(COC(=O)c3ccc(F)cc3)=C[C@H](C4=O)[C@@H]1C2(C)C | 
16.2 µM | 8.8 µM | 23.5 µM | CCCCCCCCCCCC(=O)O[C@@]12C[C@@H](C)[C@]34C=C(C)[C@H](OCc5ccccc5)[C@@]3(O)[C@H](O)C(CO)=C[C@H](C4=O)[C@@H]1C2(C)C | 
10 µM | > 50 µM | 7.9 µM | CCCCCCCCCCCC(=O)O[C@@]12C[C@@H](C)[C@]34C=C(C)[C@H](OC(=O)c5ccc(Br)cc5)[C@@]3(O)[C@H](O)C(CO)=C[C@H](C4=O)[C@@H]1C2(C)C | 
> 50 µM |  | > 50 µM | CCCCCCCCCCCC(=O)O[C@@]12C[C@@H](C)[C@]34C=C(C)[C@H](OC(=O)c5ccc(Br)cc5)[C@@]3(O)[C@H](O)C(COC(=O)c3ccc(Br)cc3)=C[C@H](C4=O)[C@@H]1C2(C)C | 
> 50 µM | 27 µM |  | CCCCCCCCCCCC(=O)O[C@@]12C[C@@H](C)[C@]34C=C(C)[C@H](OC(=O)NCc5ccc(C)cc5)[C@@]3(O)[C@H](O)C(CO)=C[C@H](C4=O)[C@@H]1C2(C)C | 
23.6 µM | 14.3 µM |  | CCCCCCCCCCCC(=O)O[C@@]12C[C@@H](C)[C@]34C=C(C)[C@H](OC(=O)c5ccc(OC)cc5)[C@@]3(O)[C@H](O)C(CO)=C[C@H](C4=O)[C@@H]1C2(C)C | 
23.8 µM | 14.5 µM |  | CCCCCCCCCCCC(=O)O[C@@]12C[C@@H](C)[C@]34C=C(C)[C@H](OC(=O)c5ccccc5)[C@@]3(O)[C@H](O)C(CO)=C[C@H](C4=O)[C@@H]1C2(C)C | 
12.8 µM | 15.5 µM | 2.6 µM | CCCCCCCCCCCC(=O)O[C@@]12C[C@@H](C)[C@]34C=C(C)[C@H](O)[C@@]3(O)[C@H](O)C(COC(=O)c3ccc([N+](=O)[O-])cc3)=C[C@H](C4=O)[C@@H]1C2(C)C | 
> 50 µM |  | > 50 µM | CCCCCCCCCCCC(=O)O[C@@]12C[C@@H](C)[C@]34C=C(C)[C@H](O)[C@@]3(O)[C@H](O)C(COC(=O)c3ccc(Br)cc3)=C[C@H](C4=O)[C@@H]1C2(C)C | 
9.4 µM | 10.9 µM | 11.8 µM | CCCCCCCCCCCC(=O)O[C@@]12C[C@@H](C)[C@]34C=C(C)[C@H](OC(=O)NCc5ccc(F)cc5)[C@@]3(O)[C@H](O)C(CO)=C[C@H](C4=O)[C@@H]1C2(C)C | 
> 50 µM | > 50 µM |  | CCCCCCCCCCCC(=O)O[C@@]12C[C@@H](C)[C@]34C=C(C)[C@H](OC(=O)c5ccc6ccccc6c5)[C@@]3(O)[C@H](O)C(CO)=C[C@H](C4=O)[C@@H]1C2(C)C | 
14.2 µM | 12 µM |  | CCCCCCCCCCCC(=O)O[C@@]12C[C@@H](C)[C@]34C=C(C)[C@H](OC(=O)c5ccc([N+](=O)[O-])cc5)[C@@]3(O)[C@H](O)C(CO)=C[C@H](C4=O)[C@@H]1C2(C)C | 
> 50 µM | > 50 µM |  | CCCCCCCCCCCC(=O)O[C@@]12C[C@@H](C)[C@]34C=C(C)[C@H](OC(=O)c5ccc(-c6ccccc6)cc5)[C@@]3(O)[C@H](O)C(CO)=C[C@H](C4=O)[C@@H]1C2(C)C | 
21.2 µM | 7.6 µM | 4.5 µM | CCCCCCCCCCCC(=O)O[C@@]12C[C@@H](C)[C@]34C=C(C)[C@H](O)[C@@]3(O)[C@H](O)C(COC(=O)c3ccc(F)cc3)=C[C@H](C4=O)[C@@H]1C2(C)C | 

From ChEMBL document CHEMBL5576041, “13-oxyingenol dodecanoate derivatives induce mitophagy and ferroptosis through targeting TMBIM6 as potential anti-NSCLC agents” (Eur J Med Chem, 2024)
